Measurements published in ChEMBL document CHEMBL1201862, “PubChem BioAssay data set” (2004).
Activity calls are given as the source filed them.

Tests used:
Genome polyprotein = Genome polyprotein (Hepatitis C virus, UniProt Q2Q167); test: HCV core protein dimerization inhibitors, dose response, biochemical, TR-FRET (AID 2159); design: species or system Hepacivirus hominis;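 further: blocks dimerization of HCV core protein measured by TR-FRET between tagged core106 pairs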
[1] = molecular target: T1, RNA-binding protein pos-1 (Caenorhabditis elegans, UniProt G5EF15); test: inhibitors of POS-1/mex-3 RNA binding, dose response, biochemical, fluorescence polarization (AID 1964);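 further: purified POS-1 fused to maltose binding protein made in E. coli; potency of compounds blocking POS-1 binding to fluorescent RNA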
T1 sequence (G5EF15 whole entry): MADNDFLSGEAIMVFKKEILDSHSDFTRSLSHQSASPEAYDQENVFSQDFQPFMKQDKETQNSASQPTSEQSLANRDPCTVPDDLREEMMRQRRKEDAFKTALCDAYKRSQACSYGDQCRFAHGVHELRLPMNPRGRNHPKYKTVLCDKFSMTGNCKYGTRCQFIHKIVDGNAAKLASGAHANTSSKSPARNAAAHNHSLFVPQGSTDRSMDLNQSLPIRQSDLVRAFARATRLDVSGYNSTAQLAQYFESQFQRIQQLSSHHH

[2] = molecular target: T2, Zinc finger protein mex-5 (Caenorhabditis elegans, UniProt Q9XUB2); test: MEX-5/TCR-2 RNA interaction inhibitors, dose response, biochemical, C. elegans, fluorescence polarization (AID 1960)
T2 sequence (Q9XUB2 whole entry): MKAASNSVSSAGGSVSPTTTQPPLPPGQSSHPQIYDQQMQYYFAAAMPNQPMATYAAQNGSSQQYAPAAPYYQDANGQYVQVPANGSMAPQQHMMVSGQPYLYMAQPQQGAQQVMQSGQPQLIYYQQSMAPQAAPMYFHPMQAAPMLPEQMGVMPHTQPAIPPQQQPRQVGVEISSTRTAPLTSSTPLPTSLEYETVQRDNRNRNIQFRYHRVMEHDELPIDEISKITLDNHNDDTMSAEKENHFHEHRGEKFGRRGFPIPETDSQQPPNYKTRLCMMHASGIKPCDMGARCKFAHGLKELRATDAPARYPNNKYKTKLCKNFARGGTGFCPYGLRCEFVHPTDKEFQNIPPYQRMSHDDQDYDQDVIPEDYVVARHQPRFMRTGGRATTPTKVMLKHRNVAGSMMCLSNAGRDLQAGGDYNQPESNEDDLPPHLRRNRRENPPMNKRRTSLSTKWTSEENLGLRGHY

[3] = MITF Orthogonal Assay: SK-MEL-5 CTG Assay Measured in Cell-Based System Using Plate Reader - 2084-02_Inhibitor_Dose_DryPowder_Activity_Set7.; assay type: functional
[4] = MITF Orthogonal Assay: MALME3 CTG Assay Measured in Cell-Based System Using Plate Reader - 2084-04_Inhibitor_Dose_DryPowder_Activity_Set6.; assay type: functional; conditions: MALME-3
[5] = TRPM1 promoter luciferase reporter signal decrease, dose response, MITF inhibitor project, cell-based, SK-MEL-5, dry powder, set 9 (AID 651588); assay type: functional
[6] = MALME3 melanoma cell viability reduction, dose response, orthogonal assay for MITF inhibitor project, CellTiter-Glo luminescence, dry powder, set 5 (AID 651584); assay type: functional, cell-based; conditions: MALME-3
[7] = MITF: Counter assay: A375 proliferation Measured in Cell-Based System Using Plate Reader - 2084-03_Inhibitor_Dose_DryPowder_Activity_Set8.; assay type: functional; conditions: A-375
[8] = TRPM1 promoter luciferase reporter signal decrease, dose response, MITF inhibitor project, cell-based, SK-MEL-5, dry powder, set 8 (AID 624430); assay type: functional
[9] = SK-MEL-5 parental cell viability reduction, dose response, orthogonal assay for MITF inhibitor project, CellTiter-Glo luminescence, dry powder, set 8 (AID 651586); assay type: functional, cell-based
[10] = HeLa 2N DNA content increase, dose response, cell-based, IC50 (AID 1117349); assay type: functional
[11] = cytotoxicity toward HCT116 cells – cell-based, CellTiter-Glo luminescence, IC50, dose response (AID 1117332); assay type: functional; conditions: HCT-116
[12] = HCT116 cell viability decrease, GSK3B pretreatment – CellTiter-Glo, IC50, dose response (AID 1117339); assay type: functional; conditions: HCT-116
[13] = Concentration-dependent survival of SW480 colon cancer line, luminescence detection with CellTiter-Glo, half-maximal inhibitory concentration (AID 1117338); assay type: functional
[14] = SNU-C1 cell viability reduction, dose response, CellTiter-Glo luminescence (AID 1117323); assay type: functional, cell-based
[15] = cytotoxicity toward Colo320 cells – cell-based, CellTiter-Glo luminescence, IC50, dose response (AID 1117334); assay type: functional; conditions: COLO 320
[16] = cytotoxicity toward HT-29 cells – cell-based, CellTiter-Glo luminescence, IC50, dose response (AID 1117330); assay type: functional
[17] = RKO cell viability reduction, dose response, CellTiter-Glo luminescence (AID 1117322); assay type: functional
[18] = HeLa 4N DNA content increase, dose response, cell-based, IC50 (AID 1117351); assay type: functional
[19] = CellTiter-Glo luminescent dose response of DLD-1 viability loss (AID 1117352); assay type: functional
[20] = Late stage results for the probe development effort to identify inhibitors of Plasmodium falciparum gametocytes: Luminescence-based cell-based high throughput dose response assay to identify inhibitors of viability of late stage Plasmodium falciparum gametocytes.; assay type: functional
[21] = P. falciparum Dd2 growth inhibitors, dose response, SYBR Green, dry powder samples (AID 1159566); assay type: functional, cell-based;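 further: potency for growth inhibition with lower SYBR green DNA signal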
[22] = P. falciparum 3D7-ScDHODH growth inhibitors, dose response, SYBR Green, dry powder samples (AID 1159570); assay type: functional, cell-based;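 further: parasite growth measured after 72 hours of compound exposure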
[23] = P. falciparum Dd2 growth inhibitors, dose response, SYBR Green, cherry-picked samples (AID 1159567); assay type: functional, cell-based
[24] = P. falciparum ATP4 D1247Y mutant growth inhibitors, dose response, NITD609-resistant line, SYBR Green, dry powder (AID 1159571); assay type: functional, cell-based;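 further: parasites synchronized at ring stage by sorbitol before testing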
[25] = HepG2 cell cytotoxicity, dose response, cytotoxicity control, plate reader, dry powder samples (AID 1159569); assay type: functional, cell-based;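 further: inhibitor potency with signal falling toward the positive control level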
[26] = molecular target: T3, Low molecular weight phosphotyrosine protein phosphatase (Homo sapiens, UniProt P24666); test: LMPTP phosphatase inhibitors, colorimetric pNPP readout, dose response, orthogonal assay, biochemical, absorbance, pNPP substrate, LMPTP-A isoform, set 2 (AID 743308); assay type: functional
T3 sequence (P24666 whole entry): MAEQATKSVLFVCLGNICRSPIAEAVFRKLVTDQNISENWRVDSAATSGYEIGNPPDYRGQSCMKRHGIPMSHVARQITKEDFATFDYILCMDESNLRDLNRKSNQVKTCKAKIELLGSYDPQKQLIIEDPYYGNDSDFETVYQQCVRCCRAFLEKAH

[27] = molecular target: T3, Low molecular weight phosphotyrosine protein phosphatase; test: LMPTP phosphatase inhibitors, dose response, biochemical, OMFP substrate, fluorescence intensity, set 2 (AID 743307); assay type: functional

Chain of Genome polyprotein (Q2Q167 whole entry, the tested form may be a part): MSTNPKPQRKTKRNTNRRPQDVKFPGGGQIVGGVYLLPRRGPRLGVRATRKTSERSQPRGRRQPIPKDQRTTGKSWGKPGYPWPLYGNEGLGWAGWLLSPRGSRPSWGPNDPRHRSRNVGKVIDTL

With `O=C1CSC(=S)N1/N=C/c1ccc(Cl)c([N+](=O)[O-])c1` the IC50 (Genome polyprotein) was > 49.8 µM (not active), the EC50 [1] was 18.6 µM (active) and the EC50 [2] was 15.7 µM (active).

In the case of `CC(C)N1CCN(C2=C(Nc3ccc(F)cc3F)C(=O)c3ccccc3C2=O)CC1`, the AC50 [3] is reported as 8.73 µM (active), the AC50 [4] is reported as 25.4 µM (active) and the AC50 [5] is reported as 9.91 µM (active). For the same compound, the AC50 [6] was 25.4 µM (active), the AC50 [7] was > 70 µM (inactive) and the AC50 [8] was 2.16 µM (active). The AC50 [9] was 59.1 µM (active).

With `Cc1cc(N)c2ccccc2[n+]1CCCCCCCCCC[n+]1c(C)cc(N)c2ccccc21` the IC50 [10] was > 10 µM (inactive), the IC50 [11] was > 20 µM (inactive) and the IC50 [12] was > 20 µM (inactive). The IC50 [13] was 3.83 µM (active), the IC50 [14] was 1.29 µM (active) and the IC50 [15] was 15.9 µM (inactive). The IC50 [16] was > 20 µM (inactive), the IC50 [17] was 2.45 µM (active) and the IC50 [18] was > 10 µM (inactive). The IC50 [19] was 5.72 µM (inactive).

With `Cc1cccc(-c2nn(-c3ccccc3)cc2C(=O)Nc2nccs2)c1` the IC50 [20] was > 74.4 µM (inactive).

For `OC[C@@H]1[C@@H](c2ccccc2)C2(CN(CCC(F)(F)F)C2)N1Cc1ccccc1`, the AC50 [21] was 2.48 µM (active), the AC50 [22] was 2.89 µM (active) and the AC50 [23] was 2.27 µM (active). The AC50 [24] was 2.36 µM (active) and the AC50 [25] was 69.1 µM (active).

For `FC(F)(F)c1cccc(-c2cc(NCCCN3CCCCC3)c3ccccc3n2)c1`, the IC50 [26] was 6.94 µM (active) and the IC50 [27] was 2.66 µM (active).
